Laboratory results taken from US10919941B2, “Functional lipid constructs” (KODE BIOTECH LIMITED, priority 2007, dated 2021).
No end group written: not given here.

Assays:
Assay type in all cases: cell-based, human
[1] = test system: sera reactive with modified RBCs; test: Neutralisation of reactive sera with free peptide, retested against modified RBCs (BioVue); set-up: key: 0 or ‘−’ no agglutination; 0 or ‘−’ no agglutination; 1+ or 3=very weak agglutination; 1+ or 3=very weak agglutination; 2+ or 5=weak agglutination; 2+ or 5=weak agglutination; 3+ or 8=moderate strong agglutination; 3+ or 8=moderate strong agglutination; 4+ or 10/12=strong agglutination; 4+ or 10/12=strong agglutination; 4+ or 10/12=strong agglutination; details: cells modified with the peptide-lipid construct M22; AHG test in BioVue
Source text: Optionally, where F is a peptide, the method includes the preliminary step of: • Adding an amount of the peptide to the sample of the serum; where the amount of the peptide is sufficient to neutralize non-specific agglutination or confirm specificity of the reactive antibody.

[2] = test system: Miltenberger antibody positive sera; test: BioVue AHG card column agglutination serology of modified red blood cells; set-up: key: 0 or ‘−’ no agglutination; 0 or ‘−’ no agglutination; 1+ or 3=very weak agglutination; 1+ or 3=very weak agglutination; 2+ or 5=weak agglutination; 2+ or 5=weak agglutination; 3+ or 8=moderate strong agglutination; 3+ or 8=moderate strong agglutination; 4+ or 10/12=strong agglutination; 4+ or 10/12=strong agglutination; 4+ or 10/12=strong agglutination
antibody negative serums = test: False positive reactions of modified RBCs with antibody negative serums/plasma; set-up: key to Reaction score BioVue AHG, PAC samples 1-46, 49, 50, 52, 53 / Reaction score BioVue AHG, PAC sample 47 / Reaction score BioVue AHG, PAC sample 48 / Reaction score BioVue AHG, PAC sample 51 / agglutination score, T series serum 2 / agglutination score, T series serum 42 / agglutination score, T series serum 63 / agglutination score, T series serum 62 / agglutination score, T series serum 7 / agglutination score, T series serum 20 / agglutination score, T series serum 48 / agglutination score, T series serum 22 / agglutination score, T series serum 39 / agglutination score, T series serum 23 / agglutination score, T series serum 30 / agglutination score, T series serum 4 / agglutination score, T series serum 31 / agglutination score, T series serum 44 / agglutination score, T series serum 61 / agglutination score, T series serum 18 / agglutination score, T series serum 21 / agglutination score, T series serum 28 / agglutination score, T series serum 55 / agglutination score, false positive serum T18 / agglutination score, false positive serum T21 / agglutination score, false positive serum T28 / agglutination score, false positive serum T55 / agglutination score, false positive serum T78 / agglutination score, false positive serum T92: 0 or ‘−’ no agglutination; 0 or ‘−’ no agglutination; 1+ or 3=very weak agglutination; 1+ or 3=very weak agglutination; 2+ or 5=weak agglutination; 2+ or 5=weak agglutination; 3+ or 8=moderate strong agglutination; 3+ or 8=moderate strong agglutination; 4+ or 10/12=strong agglutination; 4+ or 10/12=strong agglutination; 4+ or 10/12=strong agglutination
[3] = test system: TAP1 serum (Taiwan Miltenberger antibody positive sample); test: Anti-MUT serum (TAP1) reactivity of modified RBCs (saline and AHG); set-up: key: 0 or ‘−’ no agglutination; 0 or ‘−’ no agglutination; 1+ or 3=very weak agglutination; 1+ or 3=very weak agglutination; 2+ or 5=weak agglutination; 2+ or 5=weak agglutination; 3+ or 8=moderate strong agglutination; 3+ or 8=moderate strong agglutination; 4+ or 10/12=strong agglutination; 4+ or 10/12=strong agglutination; 4+ or 10/12=strong agglutination
[4] = Australia, Melb Path, 45 tested, construct 50 μg/ml
[5] = Australia, RNSH, 500 tested, construct 50 μg/ml
[6] = Malaysia, UMMC, 749 tested, construct 50 μg/ml
[7] = Philippines, Metrop Hosp, 60 tested, construct 50 μg/ml
[8] = blood donor plasma, construct 50 μg/ml (2 hours, 37° C.)

M22: DOPE peptide-lipid construct: MUTK peptide SQTNDKHKRD, leader c, spacer CMG(2) (SQTNDKHKRDC; also: DOPE peptide-lipid construct via leader Cys, spacer CMG(2))
2.5%: % Positive, BioVue (antibody negative serums; [6])
10: TAP 1 Serum, AHG score ([3]; construct 200 μg/ml)
0%: % Positive, Tube (antibody negative serums; [7]) | % False Positives (antibody negative serums; panel of blood donor plasma samples (PAC), BioVue AHG, construct 50 μg/ml)
2: Number Positive, BioVue (antibody negative serums; [4]) | Number Positive, BioVue (antibody negative serums; [5]) | Number Positive, DiaMed (antibody negative serums; [5])
8: Pre-neutralisation serology, PAC74 [1] | Pre-neutralisation serology, TAP1 [1] | BioVue score vs TAP1 ([2]; construct 50 μg/ml) | TAP 1 Serum, AHG score ([3]; construct 20 μg/ml) | TAP 1 Serum, AHG score ([3]; construct 50 μg/ml) | Reactivity with anti-MUT serum TAP1 ([3]; construct 50 μg/ml (2 hours, 37° C.)) | TAP 1 Serum, AHG score ([3]; construct 100 μg/ml)
0.4%: % Positive, BioVue (antibody negative serums; [5]) | % Positive, DiaMed (antibody negative serums; [5])
0: BioVue score vs positive sample 2 T217 (T) ([2]; construct 50 μg/ml) | BioVue score vs positive sample 3 T165 (Mur) ([2]; construct 50 μg/ml) | BioVue score vs positive sample 4 T7202 (M) ([2]; construct 50 μg/ml) | BioVue score vs positive sample 8 T5896 (M + K + Mur) ([2]; construct 50 μg/ml) | TAP 2 Serum BioVue AHG score ([2]; construct 100 μg/ml) | Number Positive, Tube (antibody negative serums; [7]) | Reaction score BioVue AHG, PAC sample 47 (antibody negative serums; [8]) | Reaction score BioVue AHG, PAC sample 48 (antibody negative serums; [8]) | Reaction score BioVue AHG, PAC sample 51 (antibody negative serums; [8]) | Reaction score BioVue AHG, PAC samples 1-46, 49, 50, 52, 53 (antibody negative serums; [8]) | TAP 1 Serum, Saline score ([3]; construct 10 μg/ml) | TAP 1 Serum, Saline score ([3]; construct 20 μg/ml) | TAP 1 Serum, Saline score ([3]; construct 50 μg/ml) | TAP 1 Serum, Saline score ([3]; construct 100 μg/ml) | TAP 1 Serum, Saline score ([3]; construct 200 μg/ml)
19: Number Positive, BioVue (antibody negative serums; [6])
3: Number Positive, BioVue (antibody negative serums; Australia, CSL, 100 tested, construct 50 μg/ml, 3 h RT then 18 h 4° C.)
3.0%: % Positive, BioVue (antibody negative serums; Australia, CSL, 100 tested, construct 50 μg/ml)
4.5%: % Positive, BioVue (antibody negative serums; [4])
5: TAP 1 Serum, AHG score ([3]; construct 10 μg/ml)
